Results on twelve compounds are retold here after ChEMBL document CHEMBL1201862, “PubChem BioAssay data set” (2004).

Structures are written as SMILES.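 Each compound was tested at five concentrations against cells in 96-well plates for 48 hours. The concentration for 50% growth inhibition is given as GI50.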 The source made the active and inactive calls. No stated cut-off is given here; in the data, active = GI50 up to about 1.1 µM and inactive = higher.

Test in all cases: inhibition of tumour cell growth, NCI panel, 48 h
In assay [1] the test system is NCI-H460.
The test system of assay [2] is RXF 393.
Assay [3] has as its system OVCAR-5.
Assay [4] deals with Malme-3M.
For assay [5], the system named is HL-60.
The test system of assay [6] is SNB-19.
Assay [7] has as its system TK-10.
Assay [8] concerns M14.
Assay [9] concerns OVCAR-8.
Assay [10] relates to SK-MEL-5.
Assay [11] has as its system CCRF-CEM.
For assay [12], the system named is COLO 205.
Assay [13] relates to HOP-92.
In assay [14] the test system is HCT-15.
The test system of assay [15] is MOLT-4.
In assay [16] the test system is SN12C.
The test system of assay [17] is RPMI-8226.
Assay [18] relates to NCI/ADR-RES.
Assay [19] has as its system BT-549.
Assay [20] concerns MDA-MB-231.

For the compound `Oc1cc(-c2ccccc2)nc2cc(Cl)ccc12`, the GI50 in [1] was 0.417 µM (active); in assay [2] it was 0.157 µM (active); in assay [3] it was > 100 µM (inactive); in assay [4], 0.42 µM (active); in assay [5] it was 0.24 µM (active); in [6], 0.527 µM (active). In addition, the GI50 in assay [7] was 27.7 µM (inactive); in assay [8] it was 0.555 µM (active); in assay [9], 0.74 µM (active); in [10], 0.191 µM (active); in assay [11], 0.432 µM (active); in assay [12], 0.697 µM (active). Also, the GI50 in [13] is 0.376 µM (active); in assay [14], 0.387 µM; in assay [15] it was 0.675 µM (active); in [16] it was 3.3 µM (inactive); in assay [17] it was 0.422 µM (active).

Take `COc1cnc2oc3ccc(O)cc3c2c1-c1ccccc1`: the GI50 in assay [1] is > 100 µM (inactive); in assay [2] it was > 100 µM (inactive); in assay [18], 30.3 µM (inactive); in [3] it was 24.1 µM (inactive); in assay [4], 40 µM (inactive); in assay [5], > 100 µM (inactive). Besides, the GI50 in assay [7] was > 100 µM (inactive); in assay [8], 18.7 µM (inactive); in [9], 55.3 µM (inactive); in assay [10], 61.9 µM (inactive); in [11], 59.3 µM (inactive); in assay [12] it was 30.6 µM (inactive). The GI50 in assay [13] was > 100 µM (inactive); in assay [19], > 100 µM (inactive); in assay [14], more than 100 µM; in assay [15], > 100 µM (inactive); in [16], > 100 µM (inactive); in assay [17] it was > 100 µM (inactive).

Turning to `C1=C[C@@H]2c3ccc4cnccc4c3NC[C@@H]2C1`, the GI50 in assay [1], in assay [2], in [18], in [3], in [4] and in assay [5] was > 100 µM (inactive) each time. In addition, the GI50 in [6], in assay [7], in assay [8], in [9], in assay [10] and in [11] was > 100 µM (inactive) throughout. Moreover, the GI50 was > 100 µM (inactive) in [12]; 75.2 µM (inactive) in [13]; > 100 µM (inactive) in [19]; more than 100 µM in [14]; > 100 µM (inactive) in [15]; > 100 µM (inactive) in assay [16]. The GI50 in [17] is > 100 µM (inactive).

Regarding `COC(=O)C1=CCS(=O)(=O)C1`, the GI50 in [1], in [2], in assay [3], in assay [4], in assay [5] and in assay [6] was > 100 µM (inactive) each time. Also, the GI50 in assay [7] was > 100 µM (inactive); in assay [8], > 100 µM (inactive); in assay [9], > 100 µM (inactive); in assay [10], 5.16 µM (inactive); in [11], > 10 µM (inactive); in assay [12], > 100 µM (inactive). The GI50 in assay [13] was > 100 µM (inactive); in [14] it was more than 100 µM; in assay [15], > 100 µM (inactive); in [16] it was > 100 µM (inactive); in assay [17], > 100 µM (inactive).

For `Cc1nc2c(O)cc3c4c([nH]c3c2nc1C)C(=O)CCC4`, the GI50 in assay [1] is 3.51 µM (inactive); in assay [2] it was 0.162 µM (active); in assay [18] it was 34.6 µM (inactive); in [3] it was 4.24 µM (inactive); in [4], 8.93 µM (inactive); in [5], 3.72 µM (inactive). Also, the GI50 is 9.42 µM (inactive) in assay [6]; 3.4 µM (inactive) in [7]; 3.35 µM (inactive) in assay [8]; 2.65 µM (inactive) in assay [9]; 7.45 µM (inactive) in assay [20]; 4.76 µM (inactive) in assay [10]. In addition, the GI50 in assay [11] was 4.07 µM (inactive); in assay [12], 2.26 µM (inactive); in assay [13], 11.2 µM (inactive); in [14], 11.9 µM; in assay [15] it was 4.91 µM (inactive); in assay [16], 4.49 µM (inactive). In addition, the GI50 in assay [17] was 2.24 µM (inactive).

Consider `COc1ccc(/N=N/c2ccc3oc(=O)c(C(=O)Nc4ccc(Cl)cc4)cc3c2)cc1`, for which the GI50 in assay [1] is > 10 µM (inactive); in [2] it was > 10 µM (inactive); in [18], 5.5 µM (inactive); in assay [3], > 10 µM (inactive); in assay [4], > 10 µM (inactive); in assay [7], > 10 µM (inactive). The GI50 in assay [8] was > 10 µM (inactive); in [9] it was > 10 µM (inactive); in [20], 6.25 µM (inactive); in assay [10] it was > 10 µM (inactive); in [12] it was > 10 µM (inactive); in assay [13] it was 7.83 µM (inactive). Further, the GI50 in assay [14] was 0.67 µM; in assay [15] it was 7.46 µM (inactive); in [16] it was > 10 µM (inactive); in assay [17], > 10 µM (inactive).

For the compound `O=C1C=C(Nc2ccc(Br)cc2)c2ccccc2/C1=N/O`, the GI50 in assay [1] was 2.3 µM (inactive); in assay [2], 16.4 µM (inactive); in assay [18] it was 8.67 µM (inactive); in assay [3], 5.18 µM (inactive); in [4] it was 10.2 µM (inactive); in assay [5], 13.2 µM (inactive). In addition, the GI50 in assay [6] is 2.5 µM (inactive); in [7] it was 9.1 µM (inactive); in [8] it was 1.63 µM (inactive); in assay [9] it was 12.1 µM (inactive); in assay [20], 9.75 µM (inactive); in [10], 0.989 µM (active). Moreover, the GI50 in [11] is 23.6 µM (inactive); in assay [12] it was 4.78 µM (inactive); in assay [13], 17.6 µM (inactive); in assay [14], 3.14 µM; in [15] it was 11.7 µM (inactive); in [16], 10.6 µM (inactive). The GI50 in assay [17] was 11.6 µM (inactive).

Regarding `CCOC(=O)c1c(SCC#N)n(-c2ccccc2)c(=S)n(-c2ccccc2)c1=O`, the GI50 in assay [1] was 34.2 µM (inactive); in [18], 35.3 µM (inactive); in assay [3], > 100 µM (inactive); in assay [4], 39.2 µM (inactive); in assay [5], 55.6 µM (inactive); in assay [6], 37.8 µM (inactive). Besides, the GI50 in assay [7] is > 100 µM (inactive); in assay [8], > 100 µM (inactive); in assay [9], 38.5 µM (inactive); in [10] it was 27 µM (inactive); in [11] it was 13.5 µM (inactive); in assay [12], 61.7 µM (inactive). Besides, the GI50 in assay [13] is 43.9 µM (inactive); in [19], 36.1 µM (inactive); in assay [14] it was 25.8 µM; in [15], 9.73 µM (inactive); in assay [16], 32.4 µM (inactive); in assay [17], 35.5 µM (inactive).

With `O=C1C(=Cc2ccc(O)cc2)N=C(c2ccccc2)N1n1c(-c2ccccc2)nc2ccccc2c1=O`, the GI50 is > 100 µM (inactive) in [4]; 40.6 µM (inactive) in assay [5]; > 100 µM (inactive) in assay [6]; > 100 µM (inactive) in assay [7]; > 100 µM (inactive) in [8]; > 100 µM (inactive) in [9]. For the same compound, the GI50 in [20] is 76.9 µM (inactive); in [10] it was > 100 µM (inactive); in assay [11] it was 32 µM (inactive); in assay [12], > 100 µM (inactive); in assay [19], > 100 µM (inactive); in assay [14] it was 38.9 µM. Also, the values for the GI50 in assay [15], in assay [16] and in assay [17] were 78.7 µM (inactive), > 10 µM (inactive) and 46.1 µM (inactive), respectively.

With `C#CCn1c(=O)c2cc(OC)c(OC)cc2n(CC#C)c1=O`, the GI50 in assay [1], in assay [2], in assay [18], in [3], in [4] and in assay [6] was > 10 µM (inactive) in each case. Further, the GI50 in [7], in assay [8], in [9], in [20], in assay [10] and in assay [11] was > 10 µM (inactive) in each case. Moreover, the GI50 is > 10 µM (inactive) in assay [12]; > 10 µM (inactive) in assay [13]; more than 10 µM in assay [14]; > 10 µM (inactive) in assay [15]; > 10 µM (inactive) in [16]; > 10 µM (inactive) in assay [17].

Consider `Nc1nc(Cl)cc(OCC2(CO)CCCC2)n1`, for which the GI50 was > 100 µM (inactive) in assay [1]; 79.8 µM (inactive) in [2]; > 100 µM (inactive) in assay [18]; > 100 µM (inactive) in assay [3]; > 100 µM (inactive) in assay [4]; > 100 µM (inactive) in assay [5]. The GI50 in [6], in [7], in assay [9], in [10], in assay [11] and in assay [13] was > 100 µM (inactive) each time. Further, the GI50 in assay [14] is more than 100 µM; in [15], > 100 µM (inactive); in assay [16], > 100 µM (inactive); in assay [17], > 100 µM (inactive).

Consider `CO[C@H]1CC[C@]2(C)C3=CC[C@@]4(C)C(CC[C@@H]4C(C)CC[C@@H](C)C(C)C)C(=CCC2C1)O3` (some centres undefined), for which the GI50 in [1], in assay [2], in assay [3], in [4], in assay [5] and in assay [6] was > 25 µM (inactive) throughout. Besides, the GI50 in assay [7], in [8], in [9], in assay [10], in assay [11] and in [12] was > 25 µM (inactive) throughout. Moreover, the GI50 in [13] was > 22.7 µM (inactive); in assay [14] it was more than 25 µM; in [15], > 25 µM (inactive); in assay [16] it was > 25 µM (inactive); in assay [17], > 25 µM (inactive).
